Measurements published in patent publication US20260256792A1, “TREATMENT OF CHRONIC SPONTANEOUS URTICARIA BY ADMINISTERING (R)-2-[3-[4-AMINO-3-(2-FLUORO-4-PHENOXY-PHENYL)PYRAZOLO[3,4-D]PYRIMIDIN-1-YL]PIPERIDINE-1-CARBONYL]-4-METHYL-4-[4-(OXETAN-3-YL)PIPERAZIN-1-YL]PENT-2-ENENITRILE” (priority 2023, published 2026).

Tested on: moderate-to-severe chronic spontaneous urticaria (CSU)
Assay: Phase 2 CSU study: urticaria activity score over 7 days (UAS7)
Assay type: in vivo, human
Details: Omalizumab-naïve, 400 mg TID
Text: The study comprises a 12 week, randomized, double-blind, placebo-controlled, multi-center, dose-ranging efficacy and safety phase, followed by a 40 week open label extension (OLE) phase (see FIG. 1). The study consists of three phases and an optional OLE phase. […] Clinically, CSU is characterized by the spontaneous and recurrent appearance of pruritic hives. The proposed primary endpoints were the UAS7 at Week 12 in EU and EU reference countries and the ISS7 in the US. Regardless of where a participant was from, all assessments were the same. The UAS7 score is a composite score containing both the HSS7 and the ISS7. This allowed a global assessment of the two key components of urticaria: hives and itch. […] The UAS is a validated PRO measure. […] The daily UAS scores range from 0 to 6 point/day. […] Patients were to complete the UAS using the e-diary. […] The following secondary endpoints were to be analyzed using the same approach as for the primary endpoint: • Change from baseline in UAS7 at Week 4 • Change from baseline in UAS7 at Week 12 (for US and US reference countries) • Change from baseline in ISS7 at Week 12 (except US and US reference countries) • Change from baseline in HSS7 at Week 12 The following responder secondary endpoints were to be analyzed using the Cochran-Mantel-Haenszel test adjusted by region: • Proportion of participants with UAS7<6 at Week 12 • Proportion of participants with UAS7=0 at Week 12 Participants who received selected prohibited medications and/or rescue medications were to be considered as non-responders for time points after the medication usage. For other participants, all available data including those collected during the off-treatment period were to be used to determine the responder/non-responder status. Missing data were to be considered as non-responders.

CC(C)(C=C(C#N)C(=O)N1CCC[C@@H](n2nc(-c3ccc(Oc4ccccc4)cc3F)c3c(N)ncnc32)C1)N1CCN(C2COC2)CC1 [rilzabrutinib, (R)-2-[3-[4-amino-3-(2-fluoro-4-phenoxy-phenyl)pyrazolo[3,4-d]pyrimidin-1-yl]piperidine-1-carbonyl]-4-methyl-4-[4-(oxetan-3-yl)piperazin-1-yl]pent-2-enenitrile]
Imputed non-responder n (%), UAS7 = 0 (Week 3): 0 n (%) | Imputed non-responder n (%), UAS7 ≤6 (Week 3): 0 n (%) | Non-responder n (%), UAS7 = 0 (Week 3): 32 (91.4) n (%) | Non-responder n (%), UAS7 ≤6 (Week 3): 27 (77.1) n (%) | OR for rilzabrutinib vs. placebo, UAS7 = 0 (Week 3): 3.625 | OR for rilzabrutinib vs. placebo, UAS7 ≤6 (Week 3): 3.239 | RRD (%) for rilzabrutinib vs. placebo, UAS7 = 0 (Week 3): 5.8 % | RRD (%) for rilzabrutinib vs. placebo, UAS7 ≤6 (Week 3): 13.6 % | Responder n (%), UAS7 = 0 (Week 3): 3 (8.6) n (%) | Responder n (%), UAS7 ≤6 (Week 3): 8 (22.9) n (%) | Imputed non-responder n (%), UAS7 = 0 (Week 4): 3 (8.6) n (%) | Imputed non-responder n (%), UAS7 ≤6 (Week 4): 3 (8.6) n (%) | Non-responder n (%), UAS7 = 0 (Week 4): 32 (91.4) n (%) | Non-responder n (%), UAS7 ≤6 (Week 4): 30 (85.7) n (%) | OR for rilzabrutinib vs. placebo, UAS7 = 0 (Week 4): 1.460 | OR for rilzabrutinib vs. placebo, UAS7 ≤6 (Week 4): 1.185 | RRD (%) for rilzabrutinib vs. placebo, UAS7 = 0 (Week 4): 2.5 % | RRD (%) for rilzabrutinib vs. placebo, UAS7 ≤6 (Week 4): 1.8 % | Responder n (%), UAS7 = 0 (Week 4): 3 (8.6) n (%) | Responder n (%), UAS7 ≤6 (Week 4): 5 (14.3) n (%) | Imputed non-responder n (%), UAS7 = 0 (Week 5): 2 (5.7) n (%) | Imputed non-responder n (%), UAS7 ≤6 (Week 5): 2 (5.7) n (%) | Non-responder n (%), UAS7 = 0 (Week 5): 29 (82.9) n (%) | Non-responder n (%), UAS7 ≤6 (Week 5): 25 (71.4) n (%) | OR for rilzabrutinib vs. placebo, UAS7 = 0 (Week 5): 6.971 | OR for rilzabrutinib vs. placebo, UAS7 ≤6 (Week 5): 5.923 | RRD (%) for rilzabrutinib vs. placebo, UAS7 = 0 (Week 5): 13.2 % | RRD (%) for rilzabrutinib vs. placebo, UAS7 ≤6 (Week 5): 19.7 % | Responder n (%), UAS7 = 0 (Week 5): 6 (17.1) n (%) | Responder n (%), UAS7 ≤6 (Week 5): 10 (28.6) n (%) | Imputed non-responder n (%), UAS7 = 0 (Week 6): 4 (11.4) n (%) | Imputed non-responder n (%), UAS7 ≤6 (Week 6): 4 (11.4) n (%) | Non-responder n (%), UAS7 = 0 (Week 6): 28 (80.0) n (%) | Non-responder n (%), UAS7 ≤6 (Week 6): 27 (77.1) n (%) | OR for rilzabrutinib vs. placebo, UAS7 = 0 (Week 6): 8.082 | OR for rilzabrutinib vs. placebo, UAS7 ≤6 (Week 6): 1.274 | RRD (%) for rilzabrutinib vs. placebo, UAS7 = 0 (Week 6): 15.6 % | RRD (%) for rilzabrutinib vs. placebo, UAS7 ≤6 (Week 6): 3.7 % | Responder n (%), UAS7 = 0 (Week 6): 7 (20.0) n (%) | Responder n (%), UAS7 ≤6 (Week 6): 8 (22.9) n (%) | Imputed non-responder n (%), UAS7 = 0 (Week 7): 5 (14.3) n (%) | Imputed non-responder n (%), UAS7 ≤6 (Week 7): 5 (14.3) n (%) | Non-responder n (%), UAS7 = 0 (Week 7): 32 (91.4) n (%) | Non-responder n (%), UAS7 ≤6 (Week 7): 26 (74.3) n (%) | OR for rilzabrutinib vs. placebo, UAS7 = 0 (Week 7): 3.625 | OR for rilzabrutinib vs. placebo, UAS7 ≤6 (Week 7): 2.685 | RRD (%) for rilzabrutinib vs. placebo, UAS7 = 0 (Week 7): 5.8 % | RRD (%) for rilzabrutinib vs. placebo, UAS7 ≤6 (Week 7): 13.4 % | Responder n (%), UAS7 = 0 (Week 7): 3 (8.6) n (%) | Responder n (%), UAS7 ≤6 (Week 7): 9 (25.7) n (%) | Imputed non-responder n (%), UAS7 = 0 (Week 8): 7 (20.0) n (%) | Imputed non-responder n (%), UAS7 ≤6 (Week 8): 7 (20.0) n (%) | Non-responder n (%), UAS7 = 0 (Week 8): 32 (91.4) n (%) | Non-responder n (%), UAS7 ≤6 (Week 8): 26 (74.3) n (%) | OR for rilzabrutinib vs. placebo, UAS7 = 0 (Week 8): 1.351 | OR for rilzabrutinib vs. placebo, UAS7 ≤6 (Week 8): 1.513 | RRD (%) for rilzabrutinib vs. placebo, UAS7 = 0 (Week 8): 1.9 % | RRD (%) for rilzabrutinib vs. placebo, UAS7 ≤6 (Week 8): 6.3 % | Responder n (%), UAS7 = 0 (Week 8): 3 (8.6) n (%) | Responder n (%), UAS7 ≤6 (Week 8): 9 (25.7) n (%) | Imputed non-responder n (%), UAS7 = 0 (Week 9): 6 (17.1) n (%) | Imputed non-responder n (%), UAS7 ≤6 (Week 9): 6 (17.1) n (%) | Non-responder n (%), UAS7 = 0 (Week 9): 32 (91.4) n (%) | Non-responder n (%), UAS7 ≤6 (Week 9): 24 (68.6) n (%) | OR for rilzabrutinib vs. placebo, UAS7 = 0 (Week 9): 0.893 | OR for rilzabrutinib vs. placebo, UAS7 ≤6 (Week 9): 3.358
